Values of other authors in patent US11160791B2, “Dexmedetomidine injection premix formulation in ready to use (RTU) bags” (Medefil, Inc., priority 2018, dated 2021).

## Cc1cccc([C@H](C)c2cnc[nH]2)c1C [dexmedetomidine]
Plastic containers, buffer system in the formulation, same prior patents
  drug loss with a buffer: ~10%
Plastic containers, even with buffers present, U.S. Pat. No. 9,649,296
  dexmedetomidine loss when sodium chloride is used: at least 10%
Plastic materials, U.S. Pat. Nos. 8,242,158, 8,648,106, 8,436,033, 8,338,470
  loss of the dexmedetomidine from the liquid composition: up to 20%
